Organism: Rattus norvegicus
Test: DrugMatrix - Regimen: Daily Repeat
Format: toxicity, organism-based, Sprague-Dawley
Design: regimen Daily Repeat, gender Male, age 6-8 weeks
Settings: in vivo, po, route oral GAVAGE, vehicle 100 % WATER; for ABSOLUTE BASOPHIL / ABSOLUTE EOSINOPHIL / ABSOLUTE LYMPHOCYTE / ABSOLUTE MONOCYTE / ABSOLUTE SEGMENTED NEUTROPHIL / BASOPHIL / EOSINOPHIL / ERYTHROCYTE COUNT / HEMATOCRIT / HEMOGLOBIN / LEUKOCYTE COUNT / LYMPHOCYTE / MEAN CORPUSCULAR HEMOGLOBIN / MEAN CORPUSCULAR HEMOGLOBIN CONCENTRATION / MEAN CORPUSCULAR VOLUME / MONOCYTE / NEUTROPHIL / NUCLEATED RED BLOOD CELLS / PLATELET COUNT: tissue Blood; for ALANINE AMINOTRANSFERASE / ALBUMIN / ALKALINE PHOSPHATASE / ASPARTATE AMINOTRANSFERASE / BLOOD UREA NITROGEN / CARBON DIOXIDE / CHLORIDE / CHOLESTEROL / CREATINE PHOSPHOKINASE / CREATININE / GLUCOSE / LACTATE DEHYDROGENASE / LIPASE / PHOSPHORUS / POTASSIUM / SODIUM / TOTAL BILIRUBIN / TOTAL PROTEIN / URIC ACID: tissue Plasma
[1] = 0 mg/kg, 72 h, dose level Control, time 3 day
[2] = 0 mg/kg, 120 h, dose level Control, time 5 day
[3] = 3 mg/kg, 72 h, dose level Low, time 3 day

For `CN(C)CC[C@@H](c1ccc(Cl)cc1)c1ccccn1` [DEXCHLORPHENIRAMINE], the “ABSOLUTE BASOPHIL” value [1] was 0 CELLS/uL, the “ABSOLUTE EOSINOPHIL” value [1] was 58.83 CELLS/uL and the “ABSOLUTE LYMPHOCYTE” value [1] was 11823.5 CELLS/uL. For the same compound, the “ABSOLUTE MONOCYTE” value [1] was 169 CELLS/uL, the “ABSOLUTE SEGMENTED NEUTROPHIL” value [1] was 815.33 CELLS/uL and the BASOPHIL [1] was 0%. The EOSINOPHIL [1] was 0.5%, the “ERYTHROCYTE COUNT” value [1] was 5.52 x10E6/uL and the HEMATOCRIT [1] was 35.77%. For the same compound, the HEMOGLOBIN [1] was 14.28 G/DL, the “LEUKOCYTE COUNT” value [1] was 12.87 x10E3/uL and the LYMPHOCYTE [1] was 91.67%. For the same compound, the “MEAN CORPUSCULAR HEMOGLOBIN” value [1] was 25.92 pg, the “MEAN CORPUSCULAR HEMOGLOBIN CONCENTRATION” value [1] was 39.95 G/DL and the “MEAN CORPUSCULAR VOLUME” value [1] was 64.85 fL. For the same compound, the MONOCYTE [1] was 1.33%, the NEUTROPHIL [1] was 6.5% and the “NUCLEATED RED BLOOD CELLS” value [1] was 0 /100WBC. For the same compound, the “PLATELET COUNT” value [1] was 1246.17 x10E3/uL, the “ALANINE AMINOTRANSFERASE” value [1] was 66 u/L and the ALBUMIN [1] was 4.25 G/DL. The “ALKALINE PHOSPHATASE” value [1] was 416 u/L, the “ASPARTATE AMINOTRANSFERASE” value [1] was 106.17 u/L and the “BLOOD UREA NITROGEN” value [1] was 12.67 mg/dL. The “CARBON DIOXIDE” value [1] was 31.83 mmol/L, the CHLORIDE [1] was 102.5 MEQ/L and the CHOLESTEROL [1] was 69 mg/dL. For the same compound, the “CREATINE PHOSPHOKINASE” value [1] was 601.83 u/L, the CREATININE [1] was 0.18 mg/dL and the GLUCOSE [1] was 154.5 mg/dL. For the same compound, the “LACTATE DEHYDROGENASE” value [1] was 301.83 u/L, the LIPASE [1] was 11.17 u/L and the PHOSPHORUS [1] was 12.08 mg/dL. For the same compound, the POTASSIUM [1] was 6.12 MEQ/L, the SODIUM [1] was 145.2 MEQ/L and the “TOTAL BILIRUBIN” value [1] was 0.17 mg/dL. For the same compound, the “TOTAL PROTEIN” value [1] was 6.1 G/DL, the “URIC ACID” value [1] was 1.57 mg/dL and the “ABSOLUTE BASOPHIL” value [2] was 0 CELLS/uL. The “ABSOLUTE EOSINOPHIL” value [2] was 19.33 CELLS/uL, the “ABSOLUTE LYMPHOCYTE” value [2] was 12577.83 CELLS/uL and the “ABSOLUTE MONOCYTE” value [2] was 106.33 CELLS/uL. For the same compound, the “ABSOLUTE SEGMENTED NEUTROPHIL” value [2] was 896.5 CELLS/uL, the BASOPHIL [2] was 0% and the EOSINOPHIL [2] was 0.17%. The “ERYTHROCYTE COUNT” value [2] was 5.84 x10E6/uL, the HEMATOCRIT [2] was 36.88% and the HEMOGLOBIN [2] was 14.48 G/DL. The “LEUKOCYTE COUNT” value [2] was 13.6 x10E3/uL, the LYMPHOCYTE [2] was 92.17% and the “MEAN CORPUSCULAR HEMOGLOBIN” value [2] was 24.85 pg. The “MEAN CORPUSCULAR HEMOGLOBIN CONCENTRATION” value [2] was 39.3 G/DL, the “MEAN CORPUSCULAR VOLUME” value [2] was 63.23 fL and the MONOCYTE [2] was 0.83%. The NEUTROPHIL [2] was 6.83%, the “NUCLEATED RED BLOOD CELLS” value [2] was 0 /100WBC and the “PLATELET COUNT” value [2] was 1223.5 x10E3/uL. For the same compound, the “ALANINE AMINOTRANSFERASE” value [2] was 55.33 u/L, the ALBUMIN [2] was 4.08 G/DL and the “ALKALINE PHOSPHATASE” value [2] was 355.5 u/L. The “ASPARTATE AMINOTRANSFERASE” value [2] was 87.67 u/L, the “BLOOD UREA NITROGEN” value [2] was 15.33 mg/dL and the “CARBON DIOXIDE” value [2] was 33.83 mmol/L. The CHLORIDE [2] was 99.67 MEQ/L, the CHOLESTEROL [2] was 72.17 mg/dL and the “CREATINE PHOSPHOKINASE” value [2] was 268.33 u/L. The CREATININE [2] was 0.15 mg/dL, the GLUCOSE [2] was 152.5 mg/dL and the “LACTATE DEHYDROGENASE” value [2] was 212.67 u/L. It also gave an LIPASE [2] of 10.83 u/L, a PHOSPHORUS [2] of 11.65 mg/dL and a POTASSIUM [2] of 6.73 MEQ/L. For the same compound, the SODIUM [2] was 142.43 MEQ/L, the “TOTAL BILIRUBIN” value [2] was 0.23 mg/dL and the “TOTAL PROTEIN” value [2] was 6.07 G/DL. The “URIC ACID” value [2] was 1.7 mg/dL, the “ABSOLUTE BASOPHIL” value [3] was 0 CELLS/uL and the “ABSOLUTE EOSINOPHIL” value [3] was 76 CELLS/uL. For the same compound, the “ABSOLUTE LYMPHOCYTE” value [3] was 10621.67 CELLS/uL, the “ABSOLUTE MONOCYTE” value [3] was 75 CELLS/uL and the “ABSOLUTE SEGMENTED NEUTROPHIL” value [3] was 960.67 CELLS/uL. The BASOPHIL [3] was 0%, the EOSINOPHIL [3] was 0.67% and the “ERYTHROCYTE COUNT” value [3] was 5.43 x10E6/uL. The HEMATOCRIT [3] was 35.8%, the HEMOGLOBIN [3] was 14.27 G/DL and the “LEUKOCYTE COUNT” value [3] was 11.73 x10E3/uL. For the same compound, the LYMPHOCYTE [3] was 90.33%, the “MEAN CORPUSCULAR HEMOGLOBIN” value [3] was 26.27 pg and the “MEAN CORPUSCULAR HEMOGLOBIN CONCENTRATION” value [3] was 39.83 G/DL. The “MEAN CORPUSCULAR VOLUME” value [3] was 65.9 fL, the MONOCYTE [3] was 0.67% and the NEUTROPHIL [3] was 8.33%. The “NUCLEATED RED BLOOD CELLS” value [3] was 0 /100WBC, the “PLATELET COUNT” value [3] was 1343.33 x10E3/uL and the “ALANINE AMINOTRANSFERASE” value [3] was 45.67 u/L. For the same compound, the ALBUMIN [3] was 4.17 G/DL, the “ALKALINE PHOSPHATASE” value [3] was 363.67 u/L and the “ASPARTATE AMINOTRANSFERASE” value [3] was 81 u/L. The “BLOOD UREA NITROGEN” value [3] was 12.67 mg/dL, the “CARBON DIOXIDE” value [3] was 31.67 mmol/L and the CHLORIDE [3] was 102.33 MEQ/L. For the same compound, the CHOLESTEROL [3] was 64 mg/dL, the “CREATINE PHOSPHOKINASE” value [3] was 265.33 u/L and the CREATININE [3] was 0.26 mg/dL. For the same compound, the GLUCOSE [3] was 152.33 mg/dL, the “LACTATE DEHYDROGENASE” value [3] was 198 u/L and the LIPASE [3] was 13.33 u/L. It also gave a PHOSPHORUS [3] of 13.23 mg/dL, a POTASSIUM [3] of 6.5 MEQ/L and an SODIUM [3] of 145.03 MEQ/L. The “TOTAL BILIRUBIN” value [3] was 0.13 mg/dL, the “TOTAL PROTEIN” value [3] was 5.87 G/DL and the “URIC ACID” value [3] was 1.57 mg/dL.

Reference: ChEMBL document CHEMBL3885881, “DrugMatrix”
